Laboratory results from ChEMBL document CHEMBL5465560, “Selectivity Literature for EUbOPEN Chemogenomic Library” (2024).
Values belong to the compound of their own block, whether it stands above or below them.

Key:
[1] = test system: Epidermal growth factor receptor (Homo sapiens), P00533 [UNDEFINED MUTATION]; test: Selectivity interaction (Ambit KINOMEscan and KiNATiv profiling in Jurkat cells) EUB0000090b EGFR; type: cell-based; details: at 1 µM
[2] = target: T1, Cyclin-G-associated kinase (Homo sapiens) (UniProt O14976); test: Selectivity interaction (KinomeScan (DiscoverX)) EUB0001619a GAK; details: at 1 µM
T1 sequence (whole entry): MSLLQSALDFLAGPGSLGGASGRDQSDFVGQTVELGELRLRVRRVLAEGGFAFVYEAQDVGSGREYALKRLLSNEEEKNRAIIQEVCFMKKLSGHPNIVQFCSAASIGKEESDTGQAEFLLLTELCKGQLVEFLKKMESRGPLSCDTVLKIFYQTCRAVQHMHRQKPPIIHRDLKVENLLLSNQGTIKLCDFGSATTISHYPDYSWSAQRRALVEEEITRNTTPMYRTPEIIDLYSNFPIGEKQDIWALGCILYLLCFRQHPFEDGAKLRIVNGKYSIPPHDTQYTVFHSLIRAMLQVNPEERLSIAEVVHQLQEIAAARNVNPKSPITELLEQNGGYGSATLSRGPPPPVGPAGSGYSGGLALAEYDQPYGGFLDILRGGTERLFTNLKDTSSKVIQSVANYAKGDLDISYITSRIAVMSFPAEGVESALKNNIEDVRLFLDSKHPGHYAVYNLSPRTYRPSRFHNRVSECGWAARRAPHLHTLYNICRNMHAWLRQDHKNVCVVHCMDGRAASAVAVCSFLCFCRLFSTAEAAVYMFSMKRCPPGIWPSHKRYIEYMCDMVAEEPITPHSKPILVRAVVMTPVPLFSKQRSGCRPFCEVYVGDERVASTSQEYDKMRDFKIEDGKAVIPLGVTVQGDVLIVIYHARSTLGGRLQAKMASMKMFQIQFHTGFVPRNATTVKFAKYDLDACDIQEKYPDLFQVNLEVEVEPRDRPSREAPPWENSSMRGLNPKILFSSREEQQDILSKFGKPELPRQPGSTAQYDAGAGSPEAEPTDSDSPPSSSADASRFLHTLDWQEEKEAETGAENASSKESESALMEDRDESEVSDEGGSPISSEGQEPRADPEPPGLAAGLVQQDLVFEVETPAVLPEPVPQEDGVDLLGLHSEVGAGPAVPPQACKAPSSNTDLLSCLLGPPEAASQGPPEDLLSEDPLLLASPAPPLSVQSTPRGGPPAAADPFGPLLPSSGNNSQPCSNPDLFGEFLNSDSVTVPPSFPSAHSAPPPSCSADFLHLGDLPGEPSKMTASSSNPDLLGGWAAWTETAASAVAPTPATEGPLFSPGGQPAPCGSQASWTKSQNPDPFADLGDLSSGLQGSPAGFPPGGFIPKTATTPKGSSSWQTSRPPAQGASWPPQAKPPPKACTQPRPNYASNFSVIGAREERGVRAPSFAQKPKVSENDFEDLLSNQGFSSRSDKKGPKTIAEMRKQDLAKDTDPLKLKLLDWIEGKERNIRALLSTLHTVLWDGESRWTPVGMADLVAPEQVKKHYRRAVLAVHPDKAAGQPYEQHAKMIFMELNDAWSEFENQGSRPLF

[3] = target: T2, Dual specificity mitogen-activated protein kinase kinase 6 (Homo sapiens) (UniProt P52564); test: Selectivity interaction (ProQinase) EUB0000171b MAP2K6
T2 sequence (whole entry): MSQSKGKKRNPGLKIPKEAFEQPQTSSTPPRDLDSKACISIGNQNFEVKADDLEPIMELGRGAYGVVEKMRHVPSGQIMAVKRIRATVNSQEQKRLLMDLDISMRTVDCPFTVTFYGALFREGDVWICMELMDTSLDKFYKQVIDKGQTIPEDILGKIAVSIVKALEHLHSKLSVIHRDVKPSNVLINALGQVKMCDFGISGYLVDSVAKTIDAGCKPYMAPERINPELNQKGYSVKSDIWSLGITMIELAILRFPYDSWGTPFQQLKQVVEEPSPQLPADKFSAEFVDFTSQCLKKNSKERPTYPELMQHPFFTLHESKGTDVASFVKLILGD

[4] = target: T3, MAP/microtubule affinity-regulating kinase 4 (Homo sapiens) (UniProt Q96L34); test: Selectivity interaction (Kinase panel (Z-LYTE Assay)) EUB0001632a MARK4; details: at 10 µM
T3 sequence (whole entry): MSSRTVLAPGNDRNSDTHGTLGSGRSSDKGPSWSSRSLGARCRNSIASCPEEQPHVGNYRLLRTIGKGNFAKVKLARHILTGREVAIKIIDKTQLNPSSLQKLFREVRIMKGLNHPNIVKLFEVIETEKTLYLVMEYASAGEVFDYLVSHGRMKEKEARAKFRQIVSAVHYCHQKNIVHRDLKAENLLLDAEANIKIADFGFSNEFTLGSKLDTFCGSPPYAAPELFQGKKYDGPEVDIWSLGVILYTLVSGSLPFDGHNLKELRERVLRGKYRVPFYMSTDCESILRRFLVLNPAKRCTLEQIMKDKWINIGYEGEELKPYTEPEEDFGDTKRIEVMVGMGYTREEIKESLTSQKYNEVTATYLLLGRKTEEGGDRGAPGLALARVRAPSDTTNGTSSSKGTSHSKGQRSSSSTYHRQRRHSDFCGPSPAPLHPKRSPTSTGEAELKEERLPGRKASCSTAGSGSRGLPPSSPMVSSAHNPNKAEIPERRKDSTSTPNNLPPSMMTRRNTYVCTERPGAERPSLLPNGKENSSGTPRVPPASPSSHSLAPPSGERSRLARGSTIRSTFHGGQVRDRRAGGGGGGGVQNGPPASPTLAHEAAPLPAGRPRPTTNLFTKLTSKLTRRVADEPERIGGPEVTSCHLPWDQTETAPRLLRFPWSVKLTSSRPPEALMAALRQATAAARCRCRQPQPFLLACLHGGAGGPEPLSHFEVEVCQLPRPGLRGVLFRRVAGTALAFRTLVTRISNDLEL

Chain of Epidermal growth factor receptor (Homo sapiens), P00533 [UNDEFINED MUTATION] (P00533 whole entry, looked up, change not shown): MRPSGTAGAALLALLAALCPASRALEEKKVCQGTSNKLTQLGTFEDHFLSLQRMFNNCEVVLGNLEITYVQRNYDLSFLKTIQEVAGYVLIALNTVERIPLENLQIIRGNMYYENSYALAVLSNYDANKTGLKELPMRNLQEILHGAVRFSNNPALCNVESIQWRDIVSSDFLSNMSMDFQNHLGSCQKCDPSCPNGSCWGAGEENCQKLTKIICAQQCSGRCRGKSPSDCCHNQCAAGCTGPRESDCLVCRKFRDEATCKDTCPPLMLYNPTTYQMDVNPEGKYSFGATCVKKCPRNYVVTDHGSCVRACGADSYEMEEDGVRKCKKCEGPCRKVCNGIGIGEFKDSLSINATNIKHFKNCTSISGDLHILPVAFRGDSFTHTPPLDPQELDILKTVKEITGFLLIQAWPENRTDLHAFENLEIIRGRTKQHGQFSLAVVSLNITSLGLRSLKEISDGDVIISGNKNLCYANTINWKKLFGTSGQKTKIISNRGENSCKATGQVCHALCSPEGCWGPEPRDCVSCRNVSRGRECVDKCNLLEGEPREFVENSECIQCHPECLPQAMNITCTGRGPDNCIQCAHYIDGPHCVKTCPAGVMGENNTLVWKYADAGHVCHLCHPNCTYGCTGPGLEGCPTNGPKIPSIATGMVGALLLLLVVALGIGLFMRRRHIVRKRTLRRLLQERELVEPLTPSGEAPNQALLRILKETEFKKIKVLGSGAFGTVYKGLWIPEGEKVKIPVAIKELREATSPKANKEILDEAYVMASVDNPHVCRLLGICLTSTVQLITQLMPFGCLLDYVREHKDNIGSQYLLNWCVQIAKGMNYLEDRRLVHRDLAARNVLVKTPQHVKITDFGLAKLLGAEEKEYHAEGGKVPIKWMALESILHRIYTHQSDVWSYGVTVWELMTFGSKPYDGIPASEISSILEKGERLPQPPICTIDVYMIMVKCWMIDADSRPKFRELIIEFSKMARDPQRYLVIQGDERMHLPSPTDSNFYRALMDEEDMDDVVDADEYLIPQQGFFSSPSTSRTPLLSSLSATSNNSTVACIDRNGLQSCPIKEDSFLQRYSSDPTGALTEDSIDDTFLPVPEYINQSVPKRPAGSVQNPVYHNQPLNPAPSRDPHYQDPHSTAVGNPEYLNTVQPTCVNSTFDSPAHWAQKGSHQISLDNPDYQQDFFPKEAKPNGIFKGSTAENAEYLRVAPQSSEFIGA

SMILES: CN(C)C/C=C/C(=O)Nc1ccc(C(=O)N2CCCC(Nc3ncc(Cl)c(-c4c[nH]c5ccccc45)n3)C2)cc1 (stereo not given)
- % of control [1]: 91%

SMILES: N#Cc1cccc(-c2c[nH]c3ncnc(N4CCOCC4)c23)c1
- % of control [2]: 100%

- % of control ([3]; at 1 µM): 103%
- % of control ([3]; at 5 µM): 126%
SMILES: C=CC(=O)Nc1cccc(C(=O)Nc2ccc(Nc3cc(-c4[nH]c(SC)nc4C)ccn3)cc2)c1

- % of control [4]: 18.7%
SMILES: Cn1cc(-n2cnc3c(NCc4nc5cc(Cl)c(Cl)cc5[nH]4)nc(N4CCOCC4)nc32)cn1
